In paper PMC6745035, “Novel tetrahydroacridine derivatives with iodobenzoic moieties induce G0/G1 cell cycle arrest and apoptosis in A549 non-small lung cancer and HT-29 colorectal cancer cells” (Molecular and Cellular Biochemistry, 2019):
Like-named read-outs stand apart in the source and are kept apart here.

How the values were obtained:
EA.hy926 cells = test: MTT cytotoxicity assay, EA.hy926; type: cell-based, human
Excerpt: The EA.hy926 cells (the human umbilical vein, somatic cell hybrid) (American Type Culture Collection) are immortalized human umbilical vein endothelial cells. They have morphological, phenotypic and functional characteristics of human endothelial cells, without the limited lifespan. This cell line has been considered as a good model for anticancer drug screening and was chosen to evaluate the endothelial cytotoxicity of novel compounds.
(§1) The MTT assay was used to evaluate cell metabolic activity. The test principle is based on the determination of cell viability by measuring the metabolic activity in mitochondria. Enzymatically active mitochondria reduce the water-soluble MTT (3-(4,5-dimethylthiazol-2-yl)-2,5 diphenyltetrazoliumbromide) to blue–violet insoluble formazan. The number of viability cells is proportional to the colour intensity determined by photometric measurements (an analytical wavelength 570 nm) after dissolving the formazan in Dimethylsulfoxide (DMSO) (Serva) and Sorensen’s glycine buffer. MTT (Sigma Aldrich) was dissolved in Phosphate Buffered Saline (PBS) (PAN-Biotech) at a concentration of 0.5 mg/mL. Sorensen’s glycine buffer is made of 0.1 M glycine and 0.1 M NaCl, at pH 10.5. Studied compounds were dissolved in DMSO in order to receive stock solutions.
(§2) For the assay, cells were seeded into 96-well plates at density 10^4 cells per well and cultured for 24 h at 37 °C and 5% CO2. Then medium was removed, and cells were exposed to the 100 µL of the compound solutions over a range of concentrations (final DMSO concentration was below 0.2%) or nothing but culture medium (blank control). Pure DMSO was used as a positive control. After 24 h of incubation with the compound solutions, medium was removed and 50 µL of the MTT solution was added to each well and incubated in the dark for additional 2 h at 37 °C. Then the MTT solution was carefully removed and 100 µL of DMSO was added. Plates were incubated for 10 min at room temperature. Finally, 5 µL of Sorensen Buffer was added to each well. Plate was swayed, and the absorbance was measured by using microplate reader (Synergy H1, BioTek, Winooski, VT, USA) at a wavelength of 570 nm. The cell viability was expressed as a percentage of the control values (blank). The experiments were done in triplicate.

HT-29 cells [1] = test: MTT cytotoxicity assay, HT-29; type: cell-based; settings: Homo sapiens, read-out: IC50 µM ± SD against HT-29
Excerpt: as §1, §2

A549 cells = test: MTT cytotoxicity assay, A549; type: cell-based, human
Excerpt: A549 cell line (lung carcinoma from human) (European Collection of Cell Culture) and HT-29 cell line (colorectal adenocarcinoma from human) (American Type Culture Collection) were chosen to evaluate the cytotoxicity of novel compounds.
as §1, §2

[2] = molecular target: T1, hyaluronidase from bovine testes Type I-S (Bos taurus, UniProt Q2YDK3); test: Hyaluronidase inhibition assay (turbidimetric); type: biochemical; settings: read-out: HYAL IC50 ± SD
T1 construct: purchased Sigma Aldrich; host or cells: bovine testes (tissue-derived preparation)
T1 sequence (Q2YDK3 36-553): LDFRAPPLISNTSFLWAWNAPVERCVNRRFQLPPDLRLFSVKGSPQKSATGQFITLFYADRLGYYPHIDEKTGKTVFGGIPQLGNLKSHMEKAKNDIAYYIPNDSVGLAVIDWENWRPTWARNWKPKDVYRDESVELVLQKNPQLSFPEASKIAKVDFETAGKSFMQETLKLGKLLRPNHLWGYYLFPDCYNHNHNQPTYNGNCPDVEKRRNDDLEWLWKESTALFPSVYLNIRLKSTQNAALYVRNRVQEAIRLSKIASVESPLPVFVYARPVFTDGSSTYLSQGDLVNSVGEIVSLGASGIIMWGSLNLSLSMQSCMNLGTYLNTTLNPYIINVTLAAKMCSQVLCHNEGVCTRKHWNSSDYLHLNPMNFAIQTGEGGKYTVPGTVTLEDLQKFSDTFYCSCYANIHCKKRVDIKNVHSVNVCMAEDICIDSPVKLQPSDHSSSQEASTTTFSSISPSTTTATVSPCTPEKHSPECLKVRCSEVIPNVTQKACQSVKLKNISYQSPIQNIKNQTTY

γ-H2AX = test: Western blot of γ-H2AX, HT-29; type: cell-based, human; settings: HT-29, 24 h, IC50 and 1/2IC50
Procedure: (§3) Then, cells were treated with chosen compounds. After 24 h of incubation, monolayer and supernatant were harvested and washed in cold PBS. Cells were centrifuged—monolayer at 1200 rpm for 10 min, supernatant 3500 rpm for 10 min. Pellets were dissolved in RIPA Lysis and Extraction buffer (Bio-Rad) containing Phosphatase Inhibitor Cocktail 3 (Sigma Aldrich) and Protease Inhibitor Cocktail (Sigma Aldrich). Samples were incubated in ice for 30 min and mixed every 10 min. Then, samples were centrifuged at 12,000 rpm for 25 min. Protein concentration in supernatants was measured in triplicate using a Protein Assay (Bio-Rad). Proteins were separated by SDS–polyacrylamide gel electrophoresis. Separating and stacking gels were made of different ratios of water, Tris–HCl pH 6.8 and pH 8.8, 10% SDS (Sigma Aldrich), Acrylamide/bis-acrylamide (Sigma Aldrich), 10% APS (Sigma Aldrich), TEMED (Sigma Aldrich). 7.5% gels were prepared for analysis PARP-1, whereas 12% gels prepared for γ-H2AX. After separation on SDS–polyacrylamide gels, proteins were electroblotted on nitrocellulose membrane in Transfer Buffer (Glycine, Tris, Methanol). Membranes were washed in TBS/0.1% or 0.05% Tween20 solution and blocked in Tris-buffered saline with 5% of non-fated dried milk for 1 h. Membranes were then incubated overnight with primary antibodies—anti-PARP-1 (Cell Signaling Technology), anti-γ-H2A.X (Cell Signaling Technology), anti-β-actin (Cell Signaling Technology) in cold room (6 °C). After incubation, membranes well washed with TBS/Tween solution and blocked with and horseradish peroxidase-conjugated secondary antibodies (Bio-Rad) for 1 h in cold room. Protein bands were visualized using ECL™ Prime Western Blotting Detection Reagents (Sigma Aldrich) Healthcare and Carestream Kodak autoradiography GBX fixer/replenisher (Sigma Aldrich) with Developer and Replenisher (Carestream) in the dark room. Results were obtained on Autoradiography Film (Santa Cruz Biotechnology). Densitometric analysis was performed by using a software program (ImageJ). […]

supercoiled pUC19 DNA = settings: 100 µM; human Topoisomerase I
SH-SY5Y cells [3] = test: Cytoprotection against rotenone/oligomycin A, pre-incubation, MTT; type: cell-based, human; settings: for Cytoprotection: pre-incubation with rotenone/oligomycin A;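 as to Cytoprotection: Toxic mixture Rotenone 30 µM plus Oligomycin A 10 µM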
Procedure: Rotenone with oligomycin A (R/O) were taken to induce mitochondrial ROS by blocking of complexes I and V of the mitochondrial electron transport chain. It causes free radical production and blockade of ATP synthesis. In the pre-incubation experiment, it could be assessed whether the compounds have cytoprotective properties due to the activation of endogenous antioxidant pathways. In the co-incubation could be shown whether compounds are free-radical scavengers. MTT assay was a test of choice, because in this assay mitochondrial activity is measured. […] It can be determined whether novel compound would protect cells from both apoptotic and necrotic death resulting from the increase of intracellular ROS. In both experiments, trolox was used as a reference compound. […] After this time, toxic mixture was added, and cells were maintained for an additional 24 h in the presence of the compounds.

SH-SY5Y cells [4] = test: Cytoprotection against H2O2 (100 µM), MTT; settings: for Cells viability (%) ± SD after 24 h of incubation with compound and H2O2: H2O2 only 82.74%; for viability at 1 µM: Homo sapiens, 24 h, read-out: Cells viability (%) ± SD after 24 h of incubation with compound and H2O2
HT-29 cells [5] = test: Reactive oxygen species assay (DCFH-DA), HT-29; type: cell-based, human; settings: compound at IC50 24 h plus H2O2, H2O2 only 1.88-fold
Procedure: After incubation, compounds were added into the wells and further incubated for next 24 h. H2O2 (1 mM) was added at 22nd h of incubation with compounds. H2O2 was used as a positive control. 30 min before the analysis, DCFH-DA (20 µM) was added to the wells. After incubation, cells were harvested and washed in PBS. Then, cells were centrifuged at 1500 rpm for 10 min. Medium was removed and cells were suspended in PBS. Analysis was performed on BD Accuri C6 Flow Cytometry (Becton–Dickinson).

PARP-1 = test: Western blot of PARP-1 cleavage, HT-29; type: cell-based, human; settings: HT-29, 24 h, IC50 and 1/2IC50
Procedure: as §3

SH-SY5Y cells [6] = test: Cytoprotection against rotenone/oligomycin A, co-incubation, MTT; type: cell-based, human; settings: co-incubation with rotenone/oligomycin A
Procedure: In the co-incubation assay, compounds and mixture of R/O were incubated together for 24 h. […] It turned out that none of the compounds (apart from 1i at the concentration of 0.001 µM and cytoprotection of 2.99%) had cytoprotective properties in the whole range of concentrations (Fig. 17). Compounds were not able to capture free radicals; therefore they cannot be classified as free-radical scavengers.

[7] = Homo sapiens, A549, MTT, 24 h incubation, read-out: IC50 µM ± SD against A549

Q: For `O=c1[nH]cc(F)c(=O)[nH]1` [5-Fluorouracil, reference compound], which IC50 (EA.hy926 cells; Homo sapiens, EA.hy 926, MTT, 24 h incubation, read-out: IC50 µM ± SD against EA.hy926) is on record?
A: The IC50 was greater than 1800 µM.

Q: What about the IC50 (HT-29 cells [1]; HT-29, MTT, 24 h incubation) of the same molecule?
A: The IC50 was 1630 ± 49.3 µM.

Q: How did the IC50 (A549 cells; [7]) turn out when `O=C(NCCNc1c2c(nc3ccccc13)CCCC2)c1ccccc1I` [Compound 1a] was run?
A: Its IC50 is 36 ± 1.74 µM.

Q: And the IC50 [2]?
A: The IC50 was 234 ± 7.9 µM.

Q: What about the IC50 (HT-29 cells [1]; HT-29, MTT, 24 h incubation) of the same molecule?
A: The IC50 was 17.3 ± 1.22 µM.

Q: Which IC50 (A549 cells; [7]) does the source give for `O=C(NCCNc1c2c(nc3ccccc13)CCCC2)c1cccc(I)c1` [Compound 1d] here?
A: The IC50 was 41.2 ± 1.27 µM.

Q: And the IC50 [2]?
A: Its IC50 is 300 ± 6.3 µM.

Q: What about the IC50 (HT-29 cells [1]; HT-29, MTT, 24 h incubation) of the same molecule?
A: The IC50 was 7.62 ± 0.19 µM.

Q: Which results are given for `O=C(NCCCCNc1c2c(nc3ccccc13)CCCC2)c1cccc(I)c1` [Compound 1f]?
A: IC50 (EA.hy926 cells; Homo sapiens, EA.hy 926, 24 h, read-out: IC50 µM ± SD against EA.hy926, MTT, 24 h incubation): 11.7 µM; IC50 (EA.hy926 cells; read-out: IC50 µM ± SD against EA.hy926, MTT, 24 h incubation): 12.4 ± 1.31 µM; γ-H2AX protein level / DNA damage (in words) (γ-H2AX): strongest H2AX phosphorylation; Intercalation: supercoiled pUC19 DNA band (in words) (supercoiled pUC19 DNA): bands at the same level as EB; Cytoprotection (SH-SY5Y cells [3]; 0.001 µM): 57.16%; Cytoprotection (SH-SY5Y cells [3]; 0.01 µM): 35.65%; Cytoprotection (SH-SY5Y cells [3]; 0.1 µM): 35.21%; Cytoprotection (SH-SY5Y cells [3]; 1 µM): 30.81%; Cytoprotective properties in the pre-incubation assay (in words) (SH-SY5Y cells [3]; rotenone/oligomycin A, range of concentration 1–0.001 µM): showed their action against oxidative stress in the whole range of concentrations; IC50 (A549 cells; Homo sapiens, A549, 24 h, read-out: IC50 µM ± SD against A549, MTT, 24 h incubation): 23.5 µM; IC50 (A549 cells; read-out: IC50 µM ± SD against A549, MTT, 24 h incubation): 26.4 ± 2.45 µM; Cells viability (%) ± SD after 24 h of incubation with compound and H2O2 (SH-SY5Y cells [4]; H2O2 100 µM, concentration: 1b 16.26, 1c 6.79, 1e 11.75, 1f 4.26, 1i 5.90 µM): 79.45 ± 9.87%; Cells viability (%) ± SD after 24 h of incubation with compound and H2O2 (SH-SY5Y cells [4]; H2O2 100 µM, concentration: 1b 65.04, 1c 27.16, 1e 46.98, 1f 17.04, 1i 29.74 µM): 23.85 ± 2.08 %; viability at 1 µM (SH-SY5Y cells [4]): 94.3 ± 7.26%; Increase in ROS level (DCF fluorescence) in comparison with non-treated control (HT-29 cells [5]): 1.87 fold; Cleaved PARP-1 (89 kDa) level (in words) (PARP-1): lower apoptosis at IC50 concentrations; IC50 (HT-29 cells [1]; HT-29, 24 h): 8.52 ± 0.1 µM

Q: How did the IC50 (A549 cells; [7]) turn out when `O=C(NCCNc1c2c(nc3ccccc13)CCCC2)c1ccc(I)cc1` [Compound 1g] was run?
A: The IC50 was 20.8 ± 1.58 µM.

Q: What about the IC50 [2] of the same molecule?
A: Its IC50 is 191 ± 10.8 µM.

Q: What about the IC50 (HT-29 cells [1]; HT-29, MTT, 24 h incubation) of the same molecule?
A: The IC50 was 8.16 ± 0.44 µM.

Q: How did the IC50 (A549 cells; [7]) turn out when `O=C(NCCCNc1c2c(nc3ccccc13)CCCC2)c1ccc(I)cc1` [Compound 1h] was run?
A: The IC50 was 21.4 ± 1.54 µM.

Q: What about the IC50 [2] of the same molecule?
A: Its IC50 is 201 ± 8.36 µM.

Q: What about the IC50 (HT-29 cells [1]; HT-29, MTT, 24 h incubation) of the same molecule?
A: The IC50 was 9.4 ± 1.65 µM.

Q: Which results are given for `Cc1c(C)c2c(c(C)c1O)CCC(C)(C(=O)O)O2` (centres unmarked) [Trolox, 6-hydroxy-2,5,7,8-tetramethylchroman-2-carboxylic acid, reference compound]?
A: Cytoprotection (SH-SY5Y cells [3]; 0.001 µM): 0.98%; Cytoprotection (SH-SY5Y cells [3]; 1 µM): 0.53%; Cytoprotection against H2O2 (SH-SY5Y cells [4]; H2O2 100 µM, 1 µM): 96.38%; viability at 1 µM (SH-SY5Y cells [4]): 99.4 ± 9.81%; Cytoprotection (SH-SY5Y cells [6]; 0.001 µM): 9.08%; Cytoprotection (SH-SY5Y cells [6]; 0.01 µM): 8.18%; Cytoprotection (SH-SY5Y cells [6]; 0.1 µM): 4.02%; Cytoprotection (SH-SY5Y cells [6]; 1 µM): 6.12%

Q: How did the “Intercalation: supercoiled pUC19 DNA band (in words)” value (supercoiled pUC19 DNA) turn out when `COc1cc(NS(C)(=O)=O)ccc1Nc1c2ccccc2nc2ccccc12` [amsacrine, reference compound] was run?
A: Its value is “stronger intercalator than EB”.

Q: Which IC50 [2] does the source give for Heparin [reference compound] here?
A: The IC50 was 56.4 ± 0.78 µM.
